Values quoted from earlier work in US6379615B1, “Methods of sterilizing articles” (St. Jude Medical, Inc., priority 2000, dated 2002).

Conditions: ethanol at about 70 percent by weight; cited from earlier work

CCO [ethanol]
bactericidal effect of ethanol alone: only mildly bactericidal
